Among the data in patent US5286733A, “Substituted 3-piperidinealkanoates and alkanones and compositions and method of use thereof” (Sterling Winthrop Inc., priority 1992, dated 1994) are inhibition and Ki values, retold here.

T1 sequence (Q60492 whole entry): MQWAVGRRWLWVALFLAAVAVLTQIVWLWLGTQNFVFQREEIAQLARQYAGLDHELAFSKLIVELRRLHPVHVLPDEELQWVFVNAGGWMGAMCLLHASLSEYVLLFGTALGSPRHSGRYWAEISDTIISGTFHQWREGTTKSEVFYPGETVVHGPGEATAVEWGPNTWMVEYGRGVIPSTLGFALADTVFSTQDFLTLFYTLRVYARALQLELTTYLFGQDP

One experiment has as its target T1, sigma receptors (Cavia porcellus, UniProt Q60492).
T1 construct: Brain tissue was prepared from male Hartley guinea pigs; tissue Hazelton Labs, Denver, Pa; (animals); host or cells: guinea pig brain membranes
The experiment is described as follows: sigma receptor binding activity, [3H]-(+)-pentazocine binding to guinea pig brain membranes. The note with it: at 10 μM; guinea pig brain membranes; approximately 0.5 nM [3H]-(+)-pentazocine; 37° C., 150 min; read-out: Percent Inhibition (of [3H]-(+)-pentazocine binding). Further details: species or system male Hartley guinea pigs. The procedure:
Brain tissue was prepared from male Hartley guinea pigs (Hazelton Labs, Denver, Pa.) which were anesthetized with CO2 and sacrificed by decapitation. All animal care and use procedures were in accord with the "Guide for the Care and Use of Laboratory Animals" (NIH Publ. No 86-23, 1985). Homogenization was performed in 10 volumes (wt/vol) of 0.32M sucrose with a Brinkmann Polytron at setting 5, 30 sec. The homogenate was centrifuged at 900 x g for 10 min at 4° C., and the supernatant was collected and centrifuged at 22,000 x g for 20 min at 4° C. The pellet was resuspended in 10 volumes of Tris-HCl buffer (50 mM, pH 7.4), incubated at 37° C. for 30 min, and centrifuged at 22,000 x g for 20 min at 4° C. Following this, the pellet was resuspended in Tris buffer and frozen in 5-10 mL aliquots corresponding to a tissue concentration of 100 mg/mL, at -70° C. Binding characteristics of the membranes were stable for at least one month when stored at -70° C.
On the day of the assay, membrane aliquots were thawed, resuspended in fresh Tris-HCl buffer and stored on ice until use. Each assay tube contained 100 μL of [3H]-(+)-pentazocine at a final concentration of approximately 0.5 nM, 100 μL of various concentrations of the compounds of interest, 500 μL of the tissue suspension and 300 μL of buffer to a final assay volume of 1 mL and a final tissue concentration of approximately 8 mg/tube, corresponding to approximately 0.15 mg protein/tube. Nonspecific binding was defined by addition of a final concentration of 1 μM haloperidol to blank tubes. All tubes were incubated at 37° C. for 150 min before termination of the reaction by rapid filtration over Whatman GF/B glass fiber filters that were presoaked in a solution of 0.5% polyethyleneimine for at least 1 hr prior to use. Filters were washed with three 4 ml volumes of cold Tris-HCl buffer.
Following addition of scintillation cocktail, samples were allowed to equilibrate for at least 4 hr. The amount of bound radioactivity was determined by liquid scintillation spectrometry using a Beckman LS 5000 TA liquid scintillation counter with an efficiency for tritium of approximately 60%. The results are reported as a percent (%) inhibition of binding at 10 μM.
Scatchard parameters and inhibition constants (Ki values) for the binding of test compounds were also calculated using the EBDA/LIGAND program (McPherson, J. Pharmacol. Meth. 1985, 14, 213-228), purchased from Elsevier/Biosoft, Inc. The Ki values are expressed as the mean ±SEM of at least three separate determinations performed in triplicate.
As to `CCOC(=O)CC[C@]1(C)[C@H](C)CCN(C)[C@H]1C` (relative stereo) [Example 1, ethyl 3-(1,2,3,4-tetramethyl-3-piperidine)propanoate], the inhibition (in general, the relative decrease from the control value, in per cent) at 10 µM is 70%.
On the same count and under the same terms, the value for `C[C@@H]1CCN[C@@H](C)[C@]1(C)CCC(=O)CCC1CCCC1` (relative stereo) [Example 3b, 1-cyclopentyl-5-(2,3,4-trimethyl-3-piperidinyl)-3-pentanone] was 96%; that for `C[C@@H]1CCN(CC2(O)CC2)[C@@H](C)[C@]1(C)CCC(=O)CCC1CCCC1` (relative stereo) [Example 3c] was 98%.
Consider `CCOC(=O)CC[C@]1(C)[C@H](C)CCN(Cc2ccccc2)[C@H]1C` (relative stereo) [Example 6, ethyl 3-[2,3,4-trimethyl-1-(phenylmethyl)-3-piperidine)propanoate], for which the inhibition at 10 µM was 99%.
As to `CC1N(CC2(O)CC2)CCC2CCCCC21CCC(=O)CCC1CCCC1` (stereo not drawn) [Example 10], the inhibition at 10 µM amounted to 84%.

Still in this experiment, the particulars now being: mean ±SEM of at least three separate determinations performed in triplicate; [3H]-(+)-pentazocine; EBDA/LIGAND.
Turning to `CCOC(=O)CC[C@]1(C)[C@H](C)CCN(Cc2ccccc2)[C@H]1C` (relative stereo) [Example 6, ethyl 3-[2,3,4-trimethyl-1-(phenylmethyl)-3-piperidine)propanoate], the Ki (commonly a dissociation constant, usually derived from enzyme kinetics or from competition with a known ligand) amounted to 39 ± 5 nM.

The same experiment, now with this note: read-out: Percent Inhibition (of [3H]-(+)-pentazocine binding).
As to `C[C@@H]1CCN(C)[C@@H](C)[C@]1(C)CCC(=O)CCC1CCCC1` (relative stereo) [Example 2, 1-cyclopentyl-5-(1,2,3,4-tetramethyl-3-piperidinyl)-3-pentanone], the inhibition at 10 µM amounted to 100%.
Take `C[C@@H]1CCN(C)[C@@H](C)[C@]1(C)CCC(=O)c1ccoc1` (relative stereo) [Example 4, 1-(3-furanyl)-3-(1.2.3.4-tetramethyl-3-piperidinyl)-1-propanone]: the inhibition at 10 µM came to 78%.
Consider `C[C@@H]1CCN(C)[C@@H](C)[C@]1(C)CCC(=O)c1ccco1` (relative stereo) [Example 5, 1-(2-furanyl)-3-(1,2,3,4-tetramethyl-3-piperidinyl)-1-propanone], for which the inhibition at 10 µM was found to be 57%.
